Measured values taken from patent US12655387B2, “Hair follicle primordia and method for producing same” (National University Corporation Yokohama National University, priority 2019, dated 2026).

System: epithelial cells and mesenchymal cells (hair follicle germ)
Experiment: co-culture of epithelial cells and mesenchymal cells in culture solution with dispersed additive; formation of hair shaft-like structure in hair follicle germ
Type: cell-based, C57BL/6 mouse
Conditions: for formation of hair follicle germ having a hair shaft-like structure: up to day 8 of culture
Description: A dorsal skin tissue was collected from a C57BL/6 mouse embryo at embryonic day 18, and was subjected to dispase treatment by a partially modified version of a method reported by […]. (Koh-ei Toyoshima et al. Nature Communications, 3, 784, 2012) at 4° C. under the shaking condition of 30 rpm for 1 hour to separate the epithelial layer and mesenchymal layer of the skin tissue. After that, the epithelial layer was treated with 100 U/mL collagenase for 1 hour and 20 minutes and further treated with trypsin for 10 minutes to isolate epithelial cells. In addition, the mesenchymal layer was treated with 100 U/mL collagenase for 1 hour and 20 minutes to isolate mesenchymal cells.
In example 1-1, the epithelial cells and the mesenchymal cells were co-cultured using a culture solution containing laminin, entactin, and type IV collagen. First, DMEM/F12 medium (Advanced Dulbecco's Modified Eagle Medi um/Ham's F-12, GIBCO® containing 1% GLUTAMAX® Supplement (L-glutamine supplement in […], GIBCO® and 0.2% NORMOCIN® (antimicrobial agent, INVIVOGEN®) was prepared as the culture solution.
Then, the epithelial cells and the mesenchymal cells in such amounts as to achieve a cell density of 5×10^3 cells/mL each (such amounts as to achieve a total cell density of 1×10^4 cells/mL) were suspended in the culture solution, and MATRIGEL® (MATRIGEL® Basement Membrane Matrix, CORNING®) in such an amount as to achieve a concentration of 1 v/v % was further added to prepare a cell suspension.
The Matrigel product used contained 10.6 mg/mL (protein amount measured by the Lowry method) of a soluble basement membrane matrix extracted from an Engelbreth-Holm-Swarm (EHS) mouse tumor, and a compositional ratio in the basement membrane matrix was as follows: 56% of laminin, 8% of entactin, and 31% of type IV collagen.
100 μL of the cell suspension was placed in each well of a 96-well plate (Prime surface (trademark), Sumitomo Bakelite Co., Ltd.) to inoculate the epithelial cells and the mesenchymal cells. […]

laminin
formation of hair shaft-like structure in hair follicle germ (1 v/v % of product at inoculation, day 8 of culture (examples 5-1, 5-2, 5-3, 6)): had no hair shaft-like structure formed therein | formation of hair follicle germ having a hair shaft-like structure (example C1-1: 5 v/v % of product (39 to 41 μg/mL laminin)): a hair follicle germ having a hair shaft-like structure was not formed | formation of hair follicle germ having a hair shaft-like structure (example C1-2: 10 v/v % of product (78 to 82 μg/mL laminin)): a hair follicle germ having a hair shaft-like structure was not formed
